Source: ChEMBL document CHEMBL1141415, “Design, synthesis, and crystal structure of hydroxyethyl secondary amine-based peptidomimetic inhibitors of human beta-secretase” (J Med Chem, 2007)

What was measured:
Beta-secretase (BACE) [1] = biological target: T1, Beta-secretase (BACE) (Homo sapiens, UniProt Q9Y5Z0+P56817); experiment: Inhibition of beta amyloid production in human HEK293 cells; type: functional, cell-based
Beta-secretase 1 = Beta-secretase 1 (Homo sapiens, UniProt P56817); experiment: Inhibition of human BACE1 by MBPC125Swe assay; type: cell-based
Beta-secretase (BACE) [2] = biological target: T1, Beta-secretase (BACE); experiment: Ratio of EC50 for beta amyloid to IC50 for BACE1; type: functional

Chain of Beta-secretase 1 (P56817 whole entry): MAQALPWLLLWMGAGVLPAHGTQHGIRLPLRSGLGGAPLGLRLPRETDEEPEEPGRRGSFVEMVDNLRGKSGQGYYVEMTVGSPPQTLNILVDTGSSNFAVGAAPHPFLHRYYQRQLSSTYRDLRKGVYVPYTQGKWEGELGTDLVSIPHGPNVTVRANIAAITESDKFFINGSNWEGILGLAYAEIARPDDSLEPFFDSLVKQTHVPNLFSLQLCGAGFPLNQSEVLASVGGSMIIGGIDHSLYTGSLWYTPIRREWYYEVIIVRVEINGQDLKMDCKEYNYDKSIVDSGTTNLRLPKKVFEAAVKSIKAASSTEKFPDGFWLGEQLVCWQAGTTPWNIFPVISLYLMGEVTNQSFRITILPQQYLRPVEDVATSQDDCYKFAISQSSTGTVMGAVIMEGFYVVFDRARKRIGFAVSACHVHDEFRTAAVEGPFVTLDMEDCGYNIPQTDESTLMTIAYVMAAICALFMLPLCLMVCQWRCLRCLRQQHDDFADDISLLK
T1 sequence (P56817 whole entry, looked up): as the sequence (P56817 whole entry) above
T1 sequence (Q9Y5Z0 whole entry, looked up): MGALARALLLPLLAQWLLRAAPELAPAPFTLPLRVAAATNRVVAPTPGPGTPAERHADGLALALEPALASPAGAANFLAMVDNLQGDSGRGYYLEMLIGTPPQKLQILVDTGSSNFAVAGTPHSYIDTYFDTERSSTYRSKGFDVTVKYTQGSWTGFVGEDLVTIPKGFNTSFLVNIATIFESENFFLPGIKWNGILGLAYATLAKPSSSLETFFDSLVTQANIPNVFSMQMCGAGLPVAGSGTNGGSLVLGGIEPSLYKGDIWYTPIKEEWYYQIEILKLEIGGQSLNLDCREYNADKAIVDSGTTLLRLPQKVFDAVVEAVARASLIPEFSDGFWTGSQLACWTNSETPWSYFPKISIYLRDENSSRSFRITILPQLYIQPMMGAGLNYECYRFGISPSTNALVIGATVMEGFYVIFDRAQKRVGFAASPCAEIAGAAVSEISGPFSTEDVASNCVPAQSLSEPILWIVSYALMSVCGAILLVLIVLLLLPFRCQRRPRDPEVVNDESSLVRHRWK

Row | SMILES | EC50 (Beta-secretase (BACE) [1]) [nM] | IC50 (Beta-secretase 1) [nM] | Ratio (Beta-secretase (BACE) [2])
1 | CCCN(CCC)C(=O)c1cccc(C(=O)N[C@@H](Cc2cc(F)cc(F)c2)[C@H](O)CN[C@@H](C)C(=O)NCC(C)C)c1 | 230 | 130 | 1
2 | CCCN(CCC)C(=O)c1cccc(C(=O)N[C@@H](Cc2cc(F)cc(F)c2)[C@H](O)CN[C@H](C)C(=O)NCC(C)C)c1 | 600 | 500 | 
3 | CCCN(CCC)C(=O)c1cc(C)cc(C(=O)N[C@@H](Cc2cc(F)cc(F)c2)[C@H](O)CNCc2ccccc2)c1 | 40 | 130 | 0.3
4 | CCCN(CCC)C(=O)c1cc(C)cc(C(=O)N[C@@H](Cc2cc(F)cc(F)c2)[C@H](O)CN[C@@H](C)C(=O)NCC(C)C)c1 | 80 | 70 | 
5 | CCCN(CCC)C(=O)c1cc(C)cc(C(=O)N[C@@H](Cc2cc(F)cc(F)c2)[C@H](O)CNC(C)(C)C(=O)NCC(C)C)c1 | 230 |  | 
